Active and inactive are the calls of the source. No cut-off for these calls is given here.
Columns and labels:
[1] = target: T1, Peptidyl-prolyl cis-trans isomerase FKBP5 (Homo sapiens, UniProt Q13451); experiment: (§1) Binding affinity to FKBP51 FK506-binding domain (1 to 140 amino acids) (unknown origin) incubated for 30 mins using fluorescein-conjugated 2-(5-((2-(3-((R)-3-(3,4-dimethoxyphenyl)-1-((S)-1-(3,3-dimethyl-2-oxopentanoyl)piperidine-2-carbonyloxy)propyl)phenoxy)acetamido)methyl)-6-hydroxy-3-oxo-3H-xanthen-9-yl)benzoic acid by competitive fluorescence polarization assay
T1 sequence (Q13451 whole entry): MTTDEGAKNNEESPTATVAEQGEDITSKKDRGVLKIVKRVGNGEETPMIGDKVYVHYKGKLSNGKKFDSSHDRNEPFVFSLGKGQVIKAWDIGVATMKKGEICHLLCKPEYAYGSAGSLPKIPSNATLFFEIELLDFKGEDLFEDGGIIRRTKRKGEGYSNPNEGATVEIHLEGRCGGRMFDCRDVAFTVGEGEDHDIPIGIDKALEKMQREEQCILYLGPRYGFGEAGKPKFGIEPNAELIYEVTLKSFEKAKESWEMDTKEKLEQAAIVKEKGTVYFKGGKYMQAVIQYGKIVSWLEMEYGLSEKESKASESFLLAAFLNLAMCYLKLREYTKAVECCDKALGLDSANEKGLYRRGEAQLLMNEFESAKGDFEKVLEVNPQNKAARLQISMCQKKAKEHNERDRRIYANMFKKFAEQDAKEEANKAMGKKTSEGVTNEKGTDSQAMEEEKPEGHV

[2] = target: Peptidyl-prolyl cis-trans isomerase FKBP1A (Homo sapiens, UniProt P62942); experiment: as §1, with “human FKBP12 FK1” for “FKBP51 FK506-binding”, “domain” for “domain (1 to 140 amino acids) (unknown origin)”
Chain of Peptidyl-prolyl cis-trans isomerase FKBP1A (P62942 whole entry, the tested form may be a part): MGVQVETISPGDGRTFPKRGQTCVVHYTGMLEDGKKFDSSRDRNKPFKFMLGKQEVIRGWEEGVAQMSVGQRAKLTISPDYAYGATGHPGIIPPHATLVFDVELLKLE

[3] = target: T1, Peptidyl-prolyl cis-trans isomerase FKBP5
Description: Binding affinity to FKBP51 (unknown origin) by competitive fluorescence polarization assay

[4] = target: T2, Peptidyl-prolyl cis-trans isomerase FKBP4 (Homo sapiens) (UniProt Q02790); experiment: as §1, with “FKBP52” for “FKBP51 FK506-binding domain”, “origin) up to 500 uM” for “origin)”
T2 sequence (whole entry): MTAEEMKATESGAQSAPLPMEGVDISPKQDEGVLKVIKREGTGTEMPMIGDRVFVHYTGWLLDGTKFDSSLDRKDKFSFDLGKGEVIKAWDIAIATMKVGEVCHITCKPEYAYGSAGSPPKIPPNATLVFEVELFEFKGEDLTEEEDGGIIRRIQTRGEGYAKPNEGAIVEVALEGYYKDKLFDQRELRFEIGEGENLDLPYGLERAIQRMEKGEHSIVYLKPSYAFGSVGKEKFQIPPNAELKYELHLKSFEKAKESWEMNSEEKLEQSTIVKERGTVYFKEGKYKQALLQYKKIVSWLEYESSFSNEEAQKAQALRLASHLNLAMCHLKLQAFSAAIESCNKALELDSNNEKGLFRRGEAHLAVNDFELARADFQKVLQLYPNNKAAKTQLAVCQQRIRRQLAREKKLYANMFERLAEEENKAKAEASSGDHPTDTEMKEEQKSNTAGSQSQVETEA

COc1cc([C@@H](C(=O)N2CCCC[C@H]2C(=O)N[C@H](Cc2cnc[nH]2)C(N)=O)C2CCCCC2)cc(OC)c1OC
Ki [1]: 3.8 µM | Ki [2]: 26.9 µM

COc1cc([C@@H](C(=O)N2CCCC[C@H]2C(=O)N[C@@H](CCC2CCCCC2)C(N)=O)C2CCCCC2)cc(OC)c1OC
Ki [1]: 12 µM | Ki [2]: 22.5 µM

CC[C@@H](NC(=O)[C@@H]1CCCCN1C(=O)[C@H](c1cc(OC)c(OC)c(OC)c1)C1CCCCC1)C(N)=O
Ki [1]: 4.5 µM | Ki [2]: 6 µM

COc1cc([C@@H](C(=O)N2CCCC[C@H]2C(=O)N[C@H](Cc2ccccc2)C(N)=O)C2CCCCC2)cc(OC)c1OC
Ki [1]: 1.4 µM | Ki [2]: 5.6 µM

CC[C@H](C)[C@H](NC(=O)[C@@H]1CCCCN1C(=O)[C@H](c1cc(OC)c(OC)c(OC)c1)C1CCCCC1)C(N)=O
Ki [1]: 7.1 µM | Ki [2]: 12.1 µM

COc1cc([C@@H](C(=O)N2CCCC[C@H]2C(=O)N[C@H](CCO)C(N)=O)C2CCCCC2)cc(OC)c1OC
Ki [2]: 1.2 µM

COc1cc([C@@H](C(=O)N2CCCC[C@H]2C(=O)N[C@@H](CCC(N)=O)C(N)=O)C2CCCCC2)cc(OC)c1OC
Ki [1]: 345 µM

CCNC(=O)[C@@H]1CCCCN1C(=O)[C@H](c1cc(OC)c(OC)c(OC)c1)C1CCCCC1
Ki [1]: 55 µM

COc1cc([C@@H](C(=O)N2CCCC[C@H]2C(=O)NCCC(N)=O)C2CCCCC2)cc(OC)c1OC
Ki [1]: 5.6 µM | Ki [2]: 49.2 µM

COc1cc([C@@H](C(=O)N2CCCC[C@H]2C(=O)N[C@H](C)C(N)=O)C2CCCCC2)cc(OC)c1OC
Ki [1]: 10 µM | Ki [2]: 71.1 µM

COc1cc([C@@H](C(=O)N2CCCC[C@H]2C(=O)N[C@@H](CC2CCCCC2)C(N)=O)C2CCCCC2)cc(OC)c1OC
Ki [1]: 17.8 µM | Ki [2]: 6.6 µM

COc1cc([C@@H](C(=O)N2CCCC[C@H]2C(=O)N[C@H](C(N)=O)C2CCCCC2)C2CCCCC2)cc(OC)c1OC
Ki [1]: 4.3 µM | Ki [2]: 12.8 µM

COc1cc([C@@H](C(=O)N2CCCC[C@H]2C(=O)NCCCCC(N)=O)C2CCCCC2)cc(OC)c1OC
Ki [1]: 3.9 µM | Ki [2]: 4.2 µM

COc1cc([C@@H](C(=O)N2CCCC[C@H]2C(=O)N[C@@H](C(N)=O)C(C)C)C2CCCCC2)cc(OC)c1OC
Ki [1]: 5 µM | Ki [2]: 39.7 µM

COc1cc([C@@H](C(=O)N2CCCC[C@H]2C(=O)NC2(C(N)=O)CCOCC2)C2CCCCC2)cc(OC)c1OC
Ki [1]: 1.8 µM | Ki [2]: 3 µM

COc1cc([C@@H](C(=O)N2CCCC[C@H]2C(=O)NC2(C(N)=O)CC2)C2CCCCC2)cc(OC)c1OC
Ki [1]: 19.5 µM | Ki [2]: 50.3 µM

COc1cc([C@@H](C(=O)N2CCCC[C@H]2C(=O)N[C@@H](Cc2cnc[nH]2)C(N)=O)C2CCCCC2)cc(OC)c1OC
Ki [1]: 13.4 µM | Ki [2]: 101 µM

COc1cc([C@@H](C(=O)N2CCCC[C@H]2C(=O)NC2(C(N)=O)CCC2)C2CCCCC2)cc(OC)c1OC
Ki [1]: 4.9 µM | Ki [2]: 23.4 µM

COc1cc([C@@H](C(=O)N2CCCC[C@H]2C(=O)N[C@@H](CC(C)C)C(N)=O)C2CCCCC2)cc(OC)c1OC
Ki [1]: 8.7 µM | Ki [2]: 6.6 µM

COc1cc([C@@H](C(=O)N2CCCC[C@H]2C(=O)N[C@@H](CO)C(N)=O)C2CCCCC2)cc(OC)c1OC
Ki [1]: 62.9 µM

COc1cc([C@@H](C(=O)N2CCCC[C@H]2C(=O)NCC(N)=O)C2CCCCC2)cc(OC)c1OC
Ki [1]: 36.7 µM | Ki [2]: > 300 µM

COc1cc([C@@H](C(=O)N2CCCC[C@H]2C(=O)N[C@@H](CCO)C(N)=O)C2CCCCC2)cc(OC)c1OC
Ki [2]: 317 µM

CC[C@@H](C)[C@@H](NC(=O)[C@@H]1CCCCN1C(=O)[C@H](c1cc(OC)c(OC)c(OC)c1)C1CCCCC1)C(N)=O
Ki [1]: 3.2 µM | Ki [2]: 8.7 µM

COc1cc([C@@H](C(=O)N2CCCC[C@H]2C(=O)N[C@@H](CCc2ccccc2)C(N)=O)C2CCCCC2)cc(OC)c1OC
Ki [1]: 9.1 µM | Ki [2]: 30.1 µM

CC[C@H](NC(=O)[C@@H]1CCCCN1C(=O)[C@H](c1cc(OC)c(OC)c(OC)c1)C1CCCCC1)C(N)=O
Ki [1]: 3.6 µM | Ki [2]: 51.9 µM

COc1cc([C@@H](C(=O)N2CCCC[C@H]2C(=O)N[C@H](CCC(N)=O)C(N)=O)C2CCCCC2)cc(OC)c1OC
Ki [1]: 3.4 µM | Ki [2]: 120 µM

COc1cc([C@@H](C(=O)N2CCCC[C@H]2C(=O)N[C@H](C(N)=O)C(C)C)C2CCCCC2)cc(OC)c1OC
Ki [1]: 12.6 µM | Ki [2]: 11.5 µM

COc1cc([C@@H](C(=O)N2CCCC[C@H]2C(=O)N[C@H](CO)C(N)=O)C2CCCCC2)cc(OC)c1OC
Ki [1]: 2.8 µM | Ki [2]: 46.9 µM

COc1cc([C@@H](C(=O)N2CCCC[C@H]2C(=O)NC(C)(C)C(N)=O)C2CCCCC2)cc(OC)c1OC
Ki [1]: 2.2 µM | Ki [2]: 25.1 µM

COc1cc([C@@H](C(=O)N2CCCC[C@H]2C(=O)N[C@@H](C(N)=O)c2ccccc2)C2CCCCC2)cc(OC)c1OC
Ki [2]: 12.4 µM

COc1cc([C@@H](C(=O)N2CCCC[C@H]2C(=O)NCCCC(N)=O)C2CCCCC2)cc(OC)c1OC
Ki [1]: 5.7 µM | Ki [2]: 22.3 µM

C=CC[C@@H]1/C=C(\C)C[C@H](C)C[C@H](OC)[C@H]2O[C@@](O)(C(=O)C(=O)N3CCCC[C@H]3C(=O)O[C@H](/C(C)=C/[C@@H]3CC[C@@H](O)[C@H](OC)C3)[C@H](C)[C@@H](O)CC1=O)[C@H](C)C[C@@H]2OC [TACROLIMUS ANHYDROUS]
Ki [3]: 0.079 µM

COc1cc([C@@H](C(=O)N2CCCC[C@H]2C(=O)N[C@@H](C)C(N)=O)C2CCCCC2)cc(OC)c1OC
Ki [1]: 17.1 µM | Ki [2]: 30.7 µM

COc1cc([C@@H](C(=O)N2CCCC[C@H]2C(=O)N[C@@H](Cc2ccccc2)C(N)=O)C2CCCCC2)cc(OC)c1OC
Ki [1]: 6.5 µM | Ki [2]: 10.9 µM

COc1cc([C@@H](C(=O)N2CCCC[C@H]2C(=O)NC(C)(C)CC(N)=O)C2CCCCC2)cc(OC)c1OC
Ki [1]: 3.8 µM | Ki [2]: 3.2 µM

COc1cc([C@@H](C(=O)N2CCCC[C@H]2C(=O)NC2(C(N)=O)CCCCC2)C2CCCCC2)cc(OC)c1OC
Ki [1]: 1.9 µM | Ki [2]: 4.3 µM

COc1cc([C@@H](C(=O)N2CCCC[C@H]2C(=O)N[C@H](C(N)=O)c2ccccc2)C2CCCCC2)cc(OC)c1OC
Ki [2]: 7.5 µM

COc1ccc(CC[C@@H](NC(=O)[C@@H]2CCCCN2C(=O)[C@H](c2cc(OC)c(OC)c(OC)c2)C2CCCCC2)c2cccc(OCC(=O)O)c2)cc1OC
Ki [1]: 0.043 µM

COc1cc([C@@H](C(=O)N2CCCC[C@H]2C(=O)NC2(C(N)=O)CCCC2)C2CCCCC2)cc(OC)c1OC
Ki [1]: 0.14 µM | Ki [2]: 3.8 µM | inhibition [4]: inactive

COc1cc([C@@H](C(=O)N2CCCC[C@H]2C(=O)NC2(C(=O)NCC(N)=O)CCCC2)C2CCCCC2)cc(OC)c1OC
Ki [1]: 0.8 µM | Ki [2]: 2 µM

Source: ChEMBL document CHEMBL3792318, “Rapid, Structure-Based Exploration of Pipecolic Acid Amides as Novel Selective Antagonists of the FK506-Binding Protein 51” (J Med Chem, 2016)
